Assay results as given in US20260364057A1, “AMIDE COMPOUND, AND COMPOSITION AND USE THEREOF” (SIMCERE ZAIMING PHARMACEUTICAL CO., LTD., priority 2022, published 2026).
pIC50: −log10 of the molar value.

test system: OVCAR3 cells; assay: Inhibition of proliferation of OVCAR-3 cells (Cell-Titer Glo); format: cell-based; settings: Homo sapiens, OVCAR-3, 72 h, 3 days, 1000 cells/well
From the text: Test Example 2. Test on Inhibition of Proliferation of OVCAR-3 Cells by Compounds of Present Disclosure
Cell and material: The human ovarian cancer cell line OVCAR3 was purchased from ATCC (Cat. No. HTB-161™), RPMI 1640 medium (Gibco #A1049101), penicillin-streptomycin (Gibco #15140122), and 0.25% Trypsin-EDTA (Gibco #25200056) were purchased from Gibco (U.S.), bovine insulin (Yeasen #40107ES60) was purchased from Yeasen, 384-well plates (Corning #CLS3765) was purchased from Corning (U.S.), and Cell-Titer Glo reagent (Promega #G7568) was purchased from Promega (U.S.).
Cell culture: OVCAR3 cells were cultured in RPMI 1640 complete medium (RPMI 1640 medium containing 20% fetal bovine serum, […] bovine insulin, and 1% penicillin-streptomycin) in an incubator (37 °C, 5% CO2), and the cells could be used in experiments when in the logarithmic growth phase.
Cell proliferation activity test: The Cell-Titer Glo reagent was used to test the compound for inhibition of proliferation of the OVCAR3 cell strain. The compound formulated with DMSO and pure DMSO (control) were each added to a 384-well plate using an Echo instrument; the compound was subjected to 3-fold serial dilution starting from 30 μM to obtain 11 concentration points, and the volume of the compound or DMSO added was 100 nL.
OVCAR3 cells were digested and resuspended in RPMI 1640 complete medium, and the suspension was added to a 384-well plate (1000 cells/50 μL/well) to be well mixed with the compound. The mixture was incubated in an incubator (37 °C, 5% CO2) for 3 days. The Cell-Titer Glo reagent was added at 25 µL/well, and the resulting mixture was well mixed by shaking and then incubated for 10 min. The Cell-Titer Glo readings were measured with a Multimode Plate Reader (brand: PerkinElmer; model: SIC-PV-018).
A negative control group (Bottom) was set, and the negative control group was medium wells with 0.2% DMSO added and was defined as 100% proliferation inhibition; the positive control group (Top) was OVCAR3 cell wells with 0.2% DMSO added.
The percent proliferation inhibition (% Inhibition) was calculated, and the curves were fit using the four-parameter equation, Y=Bottom+(Top−Bottom)/(1+(IC50/X)^HillSlope), to obtain the proliferation inhibition IC50 of the compound. • Percent inhibition: % Inhibition=(1−(Signal−Bottom)/(Top−Bottom))×100%. • Signal: Cell-Titer Glo reading of wells with compound added; • Bottom: Cell-Titer Glo reading of negative control wells; • Top: Cell-Titer Glo reading of positive control wells.

| SMILES | pIC50 |
| --- | --- |
| O=C(Nc1cccc2c1nc1n2CCCC1)c1ccc(NS(=O)(=O)CCO)cc1N1CCC2(CC1)CC2 [Compound 12] | 7.02 |
| O=C(Nc1cc2nccn2c(N2CCC(F)(F)CC2)n1)c1ccc(NS(=O)(=O)CCO)cc1N1CCC2(CC1)CC2 [Compound 14] | 7.11 |
| O=C(Nc1cccc2c1nc1n2CCCCC1)c1ccc(NS(=O)(=O)CCO)cc1N1CCC2(CC1)CC2 [Compound 24] | 7.28 |
| O=C(Nc1cc2c(c(N3CCC(F)(F)CC3)c1)OCC2)c1ccc(NS(=O)(=O)CCO)cc1N1CCC2(CC1)CC2 [Compound 28] | 8.44 |
| O=C(Nc1cccn2c3c(nc12)CCCCC3)c1ccc(NS(=O)(=O)CCO)cc1N1CCC2(CC1)CC2 [Compound 29] | 7.16 |
| O=C(Nc1cccc2c1nc1n2CCOC1)c1ccc(NS(=O)(=O)CCO)cc1N1CCC2(CC1)CC2 [Compound 34] | 7.64 |
| O=C(Nc1cccc2c1nc1n2CC2CCC1C2)c1ccc(NS(=O)(=O)CCO)cc1N1CCC2(CC1)CC2 (centres unmarked) [Compound 35] | 7.06 |
| O=C(Nc1cccc2c1nc1n2CCCC1)c1ccc(S(=O)(=O)NCCO)cc1N1CCC2(CC1)CC2 [Compound 39] | 7.12 |
| O=C(Nc1cccc2c1nc1n2CC2CCC1O2)c1ccc(NS(=O)(=O)CCO)cc1N1CCC2(CC1)CC2 (centres unmarked) [Compound 40] | 7.44 |
| O=C(Nc1cc2c(c(N3CCC(F)(F)CC3)c1)CCC2)c1ccc(NS(=O)(=O)CCO)cc1N1CCC2(CC1)CC2 [Compound 41] | 7.77 |
| O=C(Nc1cc2c(c3c1nc1n3CCCC1)OCC2)c1ccc(NS(=O)(=O)CCO)cc1N1CCC2(CC1)CC2 [Compound 42] | 7.58 |
| O=C(Nc1cn2ccnc2c(N2CCC(F)(F)CC2)n1)c1ccc(NS(=O)(=O)CCO)cc1N1CCC2(CC1)CC2 [Compound 44] | 8.04 |
| O=C(Nc1cc(N2CCC(F)(F)CC2)c2occc2c1)c1ccc(NS(=O)(=O)CCO)cc1N1CCC2(CC1)CC2 [Compound 45] | 8.18 |
| O=C(Nc1cccc2c1nc1n2C2CCC1CC2)c1ccc(NS(=O)(=O)CCO)cc1N1CCC2(CC1)CC2 [Compound 47] | 7.25 |
| O=C(Nc1cccc2c1nc1n2CC2CC12)c1ccc(NS(=O)(=O)CCO)cc1N1CCC2(CC1)CC2 (centres unmarked) [Compound 48] | 7.69 |
| O=C(Nc1cccc2c1nc1n2CCC(F)(F)CC1)c1ccc(NS(=O)(=O)CCO)cc1N1CCC2(CC1)CC2 [Compound 49] | 7.30 |
| N#Cc1ccc(NC(=O)c2ccc(NS(=O)(=O)CCO)cc2N2CCC3(CC2)CC3)c2nc3n(c12)CCCC3 [Compound 50] | 7.31 |
| O=C(Nc1cc2c(c(N3CCOCC3)c1)OCC2)c1ccc(NS(=O)(=O)CCO)cc1N1CCC2(CC1)CC2 [Compound 51] | 7.17 |
| O=C(Nc1cccc2c1nc1n2CCOCC1)c1ccc(NS(=O)(=O)CCO)cc1N1CCC2(CC1)CC2 [Compound 53] | 7.68 |
| O=C(Nc1cccc2c1nc1n2CCCOC1)c1ccc(NS(=O)(=O)CCO)cc1N1CCC2(CC1)CC2 [Compound 54] | 7.68 |
| CC1Cn2c(nc3c(NC(=O)c4ccc(NS(=O)(=O)CCO)cc4N4CCC5(CC4)CC5)cccc32)CO1 (centres unmarked) [Compound 55] | 7.76 |
| CC1OCCn2c1nc1c(NC(=O)c3ccc(NS(=O)(=O)CCO)cc3N3CCC4(CC3)CC4)cccc12 (centres unmarked) [Compound 56] | 7.51 |
| Cn1cc(NC(=O)c2ccc(NS(=O)(=O)CCO)cc2N2CCC3(CC2)CC3)nc(N2CCC(F)(F)CC2)c1=O [Compound 58] | 8.10 |
| O=C(Nc1cccc2c1nc1n2CC2CC1O2)c1ccc(NS(=O)(=O)CCO)cc1N1CCC2(CC1)CC2 (centres unmarked) [Compound 59] | 7.63 |

target: T1, Human KIF18A (1-376aa) (Homo sapiens, UniProt Q8NI77); assay: KIF18A enzyme activity assay (ADP-Glo); format: biochemical; settings: microtubule 50 μg/mL, ATP (Km 70 μM), room temperature, 15 min, read-out: KIF18A inhibitory activity IC50
T1 construct: Human KIF18A (1-376aa) protease used in the experiments; purchased Shanghai Panchao Biotechnology Co., Ltd
T1 sequence (Q8NI77 1-376): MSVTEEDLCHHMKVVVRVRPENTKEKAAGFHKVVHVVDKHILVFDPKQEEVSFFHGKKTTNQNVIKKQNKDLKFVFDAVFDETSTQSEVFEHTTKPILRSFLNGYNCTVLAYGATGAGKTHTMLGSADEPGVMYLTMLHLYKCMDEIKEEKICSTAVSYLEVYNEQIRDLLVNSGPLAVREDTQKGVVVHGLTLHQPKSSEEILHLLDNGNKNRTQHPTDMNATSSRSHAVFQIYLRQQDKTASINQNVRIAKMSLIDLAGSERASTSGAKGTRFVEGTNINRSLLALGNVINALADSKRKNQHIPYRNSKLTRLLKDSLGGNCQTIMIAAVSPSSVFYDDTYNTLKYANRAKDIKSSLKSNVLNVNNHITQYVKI
Procedure: Test Example 1: KIF18A Enzyme Activity Assay
Based on the ADP-Glo™ Kinase Assay, the ADP amount generated in the reaction was detected to reflect the enzyme activity of KIF18A.
Human KIF18A (1-376aa) […] used in the experiments, expressed by Shanghai Panchao Biotechnology Co., Ltd., was stored at −80 °C (no more than 5 freeze-thaw cycles).
The assay kit (ADP-Glo™ Kinase Assay) was purchased from Promega (Cat. No. V9101) and stored at −30 °C. The kit detects the enzyme activity by measuring ADP generated in enzyme reaction. The KIF18A enzyme and ATP generate ADP. The remaining ATP in this reaction is consumed by the ADP-Glo reagent, while the ADP generated by the KIF18A enzyme reaction is converted back to ATP by the assay reagent. The ATP then reacts with luciferin in the presence of Ultra-Glo™ luciferase, producing luminescence. The luminescent signal is positively correlated with the activity of the KIF18A enzyme.
Compounds were each subjected to 3-fold serial dilution starting from 10 μM to obtain 10 concentration points. The compounds and pure DMSO (control) were pipetted into wells of a 384-well plate using an Echo instrument, and the total volume of compound and DMSO was 100 nL; sample concentrations of gradient dilution were obtained by the instrument based on different ratios. Preparation of a KIF18A enzyme reaction buffer: […], 10 mM MgCl2, 0.01% Pluronic F-68, 1 μM Taxol, and 50 μg/mL Microtubule. KIF18A and the enzyme reaction buffer were mixed, and then the mixed solution was added to the 384-well plate and incubated at room temperature for 15 min. ATP (Km 70 μM) was then added to the mixed solution, and the mixed solution was incubated at room temperature for 15 min. 10 μL of ADP-Glo™ Reagent was well mixed with 10 μL of the mixed solution, and the mixture was incubated at room temperature for 40 min. Finally, 20 μL of ADP-Glo™ Detection Reagent was added, and the mixture was incubated at room temperature for 30 min. The chemiluminescent signal in each well was measured using an Envision plate reader (PerkinElmer, emission wavelength: 400-700 nm). In the experiment, 1 column of wells with no compound and no enzyme (chemiluminescence value was taken as [RLU]background) and 1 column of wells with enzyme but no compound (chemiluminescence value was taken as [RLU]enzyme) were provided. The chemiluminescence value of the compound adding group was taken as [RLU]cpd. The inhibition rate of the compound on […] was calculated according to the following equation: inhibition rate (%)=([RLU]enzyme−[RLU]cpd)/([RLU]enzyme−[RLU]background)×100%, and the inhibitory activity IC50 value of the compound on the enzyme activity was calculated using a four-parameter Logistic Model method. In the following equation, x represents the logarithmic form of the concentration of compound, and f (x) represents an effect value (inhibition rate of enzyme activity at the concentration): F(x)=(A+((B−A)/(1+((C/x)^D)))). A. B, C, and D are four parameters.

| SMILES | pIC50 |
| --- | --- |
| O=C(Nc1cccc2c1nc1n2CCCC1)c1ccc(NS(=O)(=O)CCO)cc1N1CCC2(CC1)CC2 [Compound 12] | > 6.70 |
| O=C(Nc1cccc2c1nc1n2CCCCC1)c1ccc(NS(=O)(=O)CCO)cc1N1CCC2(CC1)CC2 [Compound 24] | > 6.70 |
| O=C(Nc1cc2c(c(N3CCC(F)(F)CC3)c1)OCC2)c1ccc(NS(=O)(=O)CCO)cc1N1CCC2(CC1)CC2 [Compound 28] | > 6.70 |
| O=C(Nc1cccn2c3c(nc12)CCCCC3)c1ccc(NS(=O)(=O)CCO)cc1N1CCC2(CC1)CC2 [Compound 29] | > 6.70 |
| O=C(Nc1cccc2c1nc1n2CCOC1)c1ccc(NS(=O)(=O)CCO)cc1N1CCC2(CC1)CC2 [Compound 34] | > 6.70 |
| O=C(Nc1cccc2c1nc1n2CC2CCC1C2)c1ccc(NS(=O)(=O)CCO)cc1N1CCC2(CC1)CC2 (centres unmarked) [Compound 35] | > 6.70 |
| O=C(Nc1cccc2c1nc1n2CCCC1)c1ccc(S(=O)(=O)NCCO)cc1N1CCC2(CC1)CC2 [Compound 39] | > 6.70 |
| O=C(Nc1cccc2c1nc1n2CC2CCC1O2)c1ccc(NS(=O)(=O)CCO)cc1N1CCC2(CC1)CC2 (centres unmarked) [Compound 40] | > 6.70 |
| O=C(Nc1cc2c(c(N3CCC(F)(F)CC3)c1)CCC2)c1ccc(NS(=O)(=O)CCO)cc1N1CCC2(CC1)CC2 [Compound 41] | > 6.70 |
| O=C(Nc1cc2c(c3c1nc1n3CCCC1)OCC2)c1ccc(NS(=O)(=O)CCO)cc1N1CCC2(CC1)CC2 [Compound 42] | > 6.70 |
| O=C(Nc1cn2ccnc2c(N2CCC(F)(F)CC2)n1)c1ccc(NS(=O)(=O)CCO)cc1N1CCC2(CC1)CC2 [Compound 44] | > 6.70 |
| O=C(Nc1cc(N2CCC(F)(F)CC2)c2occc2c1)c1ccc(NS(=O)(=O)CCO)cc1N1CCC2(CC1)CC2 [Compound 45] | > 6.70 |
| O=C(Nc1cccc2c1nc1n2C2CCC1CC2)c1ccc(NS(=O)(=O)CCO)cc1N1CCC2(CC1)CC2 [Compound 47] | > 6.70 |
| O=C(Nc1cccc2c1nc1n2CC2CC12)c1ccc(NS(=O)(=O)CCO)cc1N1CCC2(CC1)CC2 (centres unmarked) [Compound 48] | > 6.70 |
| O=C(Nc1cccc2c1nc1n2CCC(F)(F)CC1)c1ccc(NS(=O)(=O)CCO)cc1N1CCC2(CC1)CC2 [Compound 49] | > 6.70 |
| N#Cc1ccc(NC(=O)c2ccc(NS(=O)(=O)CCO)cc2N2CCC3(CC2)CC3)c2nc3n(c12)CCCC3 [Compound 50] | > 6.70 |
| O=C(Nc1cc2c(c(N3CCOCC3)c1)OCC2)c1ccc(NS(=O)(=O)CCO)cc1N1CCC2(CC1)CC2 [Compound 51] | > 6.70 |
| O=C(Nc1cccc2c1nc1n2CCOCC1)c1ccc(NS(=O)(=O)CCO)cc1N1CCC2(CC1)CC2 [Compound 53] | > 6.70 |
| O=C(Nc1cccc2c1nc1n2CCCOC1)c1ccc(NS(=O)(=O)CCO)cc1N1CCC2(CC1)CC2 [Compound 54] | > 6.70 |
| CC1Cn2c(nc3c(NC(=O)c4ccc(NS(=O)(=O)CCO)cc4N4CCC5(CC4)CC5)cccc32)CO1 (centres unmarked) [Compound 55] | > 6.70 |
| CC1OCCn2c1nc1c(NC(=O)c3ccc(NS(=O)(=O)CCO)cc3N3CCC4(CC3)CC4)cccc12 (centres unmarked) [Compound 56] | > 6.70 |
| Cn1cc(NC(=O)c2ccc(NS(=O)(=O)CCO)cc2N2CCC3(CC2)CC3)nc(N2CCC(F)(F)CC2)c1=O [Compound 58] | > 6.70 |
| O=C(Nc1cccc2c1nc1n2CC2CC1O2)c1ccc(NS(=O)(=O)CCO)cc1N1CCC2(CC1)CC2 (centres unmarked) [Compound 59] | > 6.70 |
